Data from patent US8658668B2, “PI3 kinase/mTOR dual inhibitor” (Eli Lilly and Company, priority 2011, dated 2014).
Values after ≈ are worked out from the molar mass of the structure shown.

Test: Solubility determination
Format: physicochemical
Method: Prepare a 2 mg/mL solution of Example 2 in each of the required media by weighing approximately 1 mg of compound into a vial and add the required volume (i.e. 0.5 mL) of the corresponding media into each vial. Place capped vial on a rotating mixture over night (˜16 hours) at ambient conditions, then filter using 0.22 um Ultrafree-MC filters (Millipore™) and measure pH of filtrate (Orion 720A pH meter). Prepare the sample for HPLC analysis by transferring 100 μL of the filtrate into a HPLC vial and add 900 μL of 50% acetonitrile/water solution.

**Q.** Which “Solubility, Average mg/mL” value (50 mM phosphate buffer at pH 2, average filtrate pH 2.31) does the source give for `CO[C@@H](C)Cn1c(=O)n(C)c2cnc3ccc(-c4cncc(C(C)(C)O)c4)cc3c21` [Example 2, 8-[5-(1-Hydroxy-1-methylethyl)pyridin-3-yl]-1-[(2S)-2-methoxypropyl]-3-methyl-1,3-dihydro-2H-imidazo[4,5-c]quinolin-2-one, Form I] here?
**A.** ≧2.0 mg/mL

**Q.** And the “Solubility, Average mg/mL” value (50 mM phosphate buffer at pH 4, average filtrate pH 4.92)?
**A.** 1.0524 mg/mL (≈ 2590 µM)

**Q.** And the “Solubility, Average mg/mL” value (50 mM phosphate buffer at pH 6, average filtrate pH 6.14)?
**A.** 0.7178 mg/mL (≈ 1770 µM)

**Q.** And the “Solubility, Average mg/mL” value (50 mM phosphate buffer at pH 8, average filtrate pH 8.00)?
**A.** 0.6352 mg/mL (≈ 1560 µM)

**Q.** What about the “Solubility, Average mg/mL” value (0.1N HCl, average filtrate pH 1.15, ~16 hours, ambient) of the same molecule?
**A.** ≧2.0 mg/mL

**Q.** What about the “Solubility, Average mg/mL” value (Fast, simulated intestinal fluid fasted state, average filtrate pH 6.45) of the same molecule?
**A.** 1.0203 mg/mL (≈ 2510 µM)

**Q.** What about the “Solubility, Average mg/mL” value (Fed, simulated intestinal fluid fed state, average filtrate pH 5.09) of the same molecule?
**A.** ≧2.0 mg/mL

**Q.** What about the “Solubility, Average mg/mL” value (SGF, simulated gastric fluid, average filtrate pH 3.52) of the same molecule?
**A.** 1.7529 mg/mL (≈ 4310 µM)
